# In patent publication US20160136123A1, “TREATMENT OF AUTOPHAGY-RELATED DISORDERS” (STC.UNM, priority 2013, published 2016):
# Legend:
# [1] = test system: HeLa cells stably expressing mRFP-GFP-LC3; test: High content imaging of LC3 puncta after oleic acid pretreatment; assay type: cell-based, Human; details: 500 μM BSA-oleic acid 20 h, then full medium or EBSS starvation 90 min
# Description: Panals (A) and (B): HeLa cells stably expressing mRFP-GFP-LC3 were treated for 20 h with BSA alone (BSA) or with BSA-oleic acid (OA; 500 μM OA) and then starved in EBSS for 90 min (Starv) or incubated in full medium (Full). A, Visualization of lipid droplet accumulation. Cells were treated as in A and lipid droplets stained with Bodipy 493/503. B, High content image analysis. Program (iDev)-assigned masks: blue outline, valid primary objects (cells); green mask, GFP puncta. (C) number of GFP+ puncta per cell from experiments illustrated in A. (D) RFP+ puncta per cell from experiments illustrated in A. High content analysis data: means±s.e. (n=3, where n represents separate experiments; each experimental point in separate experiments contained >500 cells identified by the program as valid primary objects); *, p<0.05 (t-test). (E) HeLa cells were treated with 0, 100, 500 or 1000 μM oleic acid (OA) using BSA as a carrier (BSA-OA) for 20 h, followed by 90 min starvation in EBSS with or without Bafilomycin A1 (BafA1), and LC3-II/actin ratios determined by immunoblotting and densitometry. (F) HeLa cells were treated for 20 h with BSA alone or with BSA-OA (500 μM OA), followed by starvation in EBSS for 90 min with or without Bafilomycin A1 (BafA1) and LC3-II/actin ratios determined by immunoblotting and densitometry. Immunobloting data: means means±s.e., *, p<0.05 (t-test). […]
# autophagic maturation = details: e.g. 1 mM, reference [27]; cited from earlier work
# HeLa cells = test: LC3-II conversion immunoblot (LC3-II/actin) with or without bafilomycin A1 after oleic acid pretreatment and starvation; assay type: cell-based, Human
# Description: Panals (A) and (B): HeLa cells stably expressing mRFP-GFP-LC3 were treated for 20 h with BSA alone (BSA) or with BSA-oleic acid (OA; 500 μM OA) and then starved in EBSS for 90 min (Starv) or incubated in full medium (Full). A, Visualization of lipid droplet accumulation. Cells were treated as in A and lipid droplets stained with Bodipy 493/503. B, High content image analysis. Program (iDev)-assigned masks: blue outline, valid primary objects (cells); green mask, GFP puncta. (C) number of GFP+ puncta per cell from experiments illustrated in A. (D) RFP+ puncta per cell from experiments illustrated in A. High content analysis data: means±s.e. (n=3, where n represents separate experiments; each experimental point in separate experiments contained >500 cells identified by the program as valid primary objects); *, p<0.05 (t-test). (E) HeLa cells were treated with 0, 100, 500 or 1000 μM oleic acid (OA) using BSA as a carrier (BSA-OA) for 20 h, followed by 90 min starvation in EBSS with or without Bafilomycin A1 (BafA1), and LC3-II/actin ratios determined by immunoblotting and densitometry. (F) HeLa cells were treated for 20 h with BSA alone or with BSA-OA (500 μM OA), followed by starvation in EBSS for 90 min with or without Bafilomycin A1 (BafA1) and LC3-II/actin ratios determined by immunoblotting and densitometry. Immunobloting data: means means±s.e., *, p<0.05 (t-test).
# Addition of oleic acid (OA) is commonly used to increase cellular LD content. […] The enhancement was detected at both autophagy initiation stage (FIG. 1C; GFP-LC3) and autophagosomal maturation (FIG. 1D; mRFP-GFP), as determined by the acidification-sensitive GFP and acidification-insenstive mRFP probes used to distinguish early autophagosomes and autolysosomes, respectively. […]
# Antibodies against endogenous proteins LC3 (MBL), P62 (BD Transduction), Atg16L1 (Cosmo Bio) were used for indirect immunofluorescence analysis. […] SlideBook morphometric analysis software 5.0 (Intelligent Imaging Innovations) was used to quantify the colocalization between Atg16L1 or DAG and lipid droplets. […]
# [2] = test system: HeLa cells stably expressing mRFP-GFP-LC3B; test: TRIM family screen control: GFP-LC3B puncta area after pp242; assay type: cell-based, Human; details: pp242 for 2 h, versus vehicle
# Description: Referring to FIG. 1A/A HeLa cells stably expressing mRFP-GFP-LC3B were subjected to TRIM knockdowns, treated with pp242, and imaged to detect nuclear stain (blue) and GFP signal (green). Top, non-targeting siRNA-transfected cells treated with carrier (DMSO) or pp242. White lines, cell borders. Red, LC3B puncta borders. Bottom, representative images of cells subjected to knockdown of TRIM45 and TRIM2, both treated with pp242. (B) Measurement of average area of GFP-LC3B area per cell from cells treated as in (A) (data from multiple 96-well plates with identical siRNA arrangements represent means and ±SE).
# Cells were exposed to virus at 4° C. for 1 hour to allow binding but not entry. […] Samples were prepared for analysis of p24, reverse transcriptase, or proviral DNA. […] HIV-1 RT was determined according to the manufacturer's protocol (Enz Chek, Invitrogen). HIV-1 proviral DNA was quantified as previously described (Campbell et al., 2004). […]
# HeLa cells stably expressing mRFP-GFP-LC3B were cultured in 96-well plates containing siRNAs against 67 human TRIMs and transfection reagent (Dharmacon). […] Automated image collection of >500 cells (distributed over 49 or fewer fields per well per siRNA knockdown per plate) were machine-analyzed using preset scanning parameters and object mask definition (iDEV software). […] When results were expressed as puncta area per cell, the units corresponded to μm^2/cell.
# [3] = test system: 293T cells and HeLa cells; test: TRIM5α overexpression: LC3-II abundance (bafilomycin A1 flux assay) and LC3 puncta by high content analysis; assay type: cell-based, Human; details: GFP-tagged protein overexpressed, compared with GFP alone; with or without bafilomycin A1
# Description: FIG. 2A/A illustrates mapping of the p62/Sequestosome 1 region interacting with RhTRIM5α. Schematic (left): domain organization of p62 and deletion/point mutation constructs employed to analyze interactions with RhTRIM5α (right panel). TR, TRIM5α and TRAF6 binding region; NLS, nuclear localization signal; NES, nuclear export signal; LIR, LC3-interacting region; KIR, KEAP1-interacting region. Analysis (right): Myc-RhTRIM5α was radiolabeled with [^35S] methionine by in vitro translation and analyzed by GST pulldown assays with GST-p62 fusion proteins. Top, autoradiogram. Bottom, Coomassie Brilliant Blue (CBB)-stained SDS-polyacrylamide gel with GST-p62 proteins. (B) Effects of TRIM5α knockdown in HeLa cells on GFP-LC3 puncta (area/cell) under basal (DMSO control) and autophagy-inducing (pp242) conditions. HuT5a, human TRIM5α; Scr, Scrambled control. […]
# We first tested p62 and TRIM5α interaction (FIG. S2A) and co-localization (FIG. S2B), and mapped the TRIM5α-binding domain on p62 to the region demarcated by residues 170-256 (FIG. 2A). […] When TRIM5α was knocked down, fewer LC3 puncta were detected ([…]) and LC3-II yields (FIG. 2A/B,C) upon induction with pp242 were reduced. […] In these experiments, high content analysis was used to differentiate GFP-TRIM5α-transfected or GFP-transfected cells from untransfected cells based on their green fluorescence. […]
compound,measurement,setting,value
"CCCCCCCC/C=C\CCCCCCCC(=O)O [OA, oleic acid]",effect of increase in lipid droplets following OA pretreatment on autophagy (GFP+ and RFP+ LC3 puncta per cell),[1],enhanced basal and induced autophagy
same,effect of high concentrations of OA on autophagic maturation,autophagic maturation,inhibitory to autophagic maturation
same,OA concentration optimal for enhancing starvation-induced autophagy (LC3-II/actin titration),"HeLa cells; 0, 100, 500 or 1000 μM OA 20 h, 90 min starvation in EBSS with or without bafilomycin A1",500 µM
same,effect of OA pretreatment in the bafilomycin A1 inhibition assay (LC3-II/actin),"HeLa cells; 500 μM BSA-OA 20 h, EBSS 90 min with or without bafilomycin A1",enhanced cellular capacity for initiation of autophagy upon starvation
same,effect of 1 mM OA on starvation-induced autophagy (LC3-II/actin titration),"HeLa cells; 1 mM OA 20 h, 90 min starvation in EBSS",either a plateau or potentially inhibitory effects on autophagy
CC(C)n1nc(-c2cc3cc(O)ccc3[nH]2)c2c(N)ncnc21 [pp242],induction of GFP-LC3B puncta area,[2],17 fold
C15A mutant of RhTRIIVI5α: catalytically inactive (E3 ligase) C15A mutant of rhesus TRIM5α,"effect of TRIM5α overexpression on autophagy (LC3-II, LC3 puncta)",[3],induced autophagy comparably to wt RhTRIM5α
